From patent publication US7700584B2 (Hangzhou Minsheng Pharmaceuticals Co., Ltd., priority 2004, dated 2010)
Where a name gives a salt, the structure may show the parent alone. Read-outs that look alike come from different tables or passages of the source.

Key:
[1] = target: T1, HIV-1 proteinase (HIV-1 PR) (Human immunodeficiency virus type 1 group M subtype B, UniProt P04585); assay: Screening for in vitro activity against HIV-1 proteinase; assay type: biochemical; settings: for Inhibition rate: hydrochloride
T1 construct: HIV-1 proteinase digests the fluorescent-labeled substrate; purchased
Summary of the method: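 Inhibition was scored from product fluorescence after the enzyme was added to buffer holding the labeled substrate and the test sample. Samples were five serial 5× dilutions in water from a DMSO solution. Indinavir served as the reference control; the enzyme was recombinant HIV-1 PR.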

[2] = tested on: MCF-7 human mammary adenocarcinoma; assay: In vitro anti-tumor IC50 (MTT), MCF-7; assay type: cell-based; settings: Table 4
Experimental: (1) Single cell suspension was seeded into 96-well plates (the cells was diluted in the PRMI-1640 minimum medium to 3×10^4 cells/ml, […] diluted cells/well). […] The experiments were performed in quadruplicate.
(2) The medium was removed. Solutions of the anti-tumor agents (50 compounds) were prepared in a freshly prepared medium at serial concentrations. […] of the solution was added into each well. Incubation was continued for 48 hours.
(3) 20 ug of 2 mg/ml MTT was added into each well, and incubated for 4 hours.
(4) The medium was removed from the well. The microplates were swiftly turned down to throw-off the medium. […] of DMSO was added into each well, and vortexed at room temperature for 10 minutes.
(5) OD value (λ=570 nm) was measured with an Enzyme-Linked Detector.
(6) The graph of cell vitality was plotted, and IC50 was calculated.

[3] = tested on: mouse grafted liver cancer H22; assay: Activity against mouse grafted liver cancer H22; assay type: in vivo, Kunming mice; settings: for Tumor weight: X ± SD, n = 10; for Average weight (g)-after administration / Average weight(g)-after administration: mouse, in vivo; for inhibitory effect against mouse grafted liver cancer H22 (in words): three different concentrations (40, 20, 10 mg/kg), i.v.
Experimental: The experiments were performed according to “Guideline for New Drugs (Western medicines) in Pre-clinical Stages” issued by Bureau of Drug Policy & Administration of the People's Republic of China, and the relevant methods in “Methodology of Pharmaceutical Experiments”, Xu Shuyun et al. ed. 120 male Kunming mice weighting […] were allowed to grow 3 days. No abnormality was observed. The mice were routinely inoculated in oxter with mouse sarcoma S-180, and weighted 4 hrs. after inoculation. The mice were randomly divided into 12 groups, 10 mice/group. Group 1 was given 0.3 ml of physiological saline as negative control; Group 2 was given 5-FU as positive control, 0.6 mg/mouse; Group 3 was given hydroxycamptothecine as positive control, 0.02 mg/mouse. Groups 4, 5 and 6 were injected with 10% Compound 6, 0.4 ml/mouse, 0.2 ml/mouse, and 0.1 ml/mouse, respectively. Groups 7, 8 and 9 were injected with 10% Compound 8, 0.4 ml/mouse, 0.2 ml/mouse, and 0.1 ml/mouse, respectively. Groups 10, 11, and 12 were injected with 10% Compound 20, 0.4 ml/mouse, 0.2 ml/mouse, and 0.1 ml/mouse, respectively. The tested compounds were administered on the next day after inoculation, once a day on alternate days, 6 doses totally administered. On the next day after the end dose, the mice were weighed and sacrificed. After the tumor was excised, body weight and tumor weight were recorded. The tumor inhibition rate was calculated based on the following formula: [(average tumor weight of the control groups−average tumor weight of the experimental groups)/average tumor weight of the control groups]×100%. The data was processed statistically. The above experiments were repeated three times.
The experiments were identical with the experiments for activity against mouse grafted sarcoma S-180, except that the cell line inoculated was liver cancer H22. The experiments were repeated three times.

[4] = tested on: MDCK (dog kidney) cells; assay: Toxicity TC50 of the samples in MDCK cells (influenza screening); settings: concentration of 50% toxicity
[5] = tested on: SMMC-7721 human hepatic carcinoma; assay: In vitro inhibition rate to tumor cells (MTT), SMMC-7721; assay type: cell-based; settings: for inhibition rate, Results (%) SMMC-7721: 50 μg/ml, hydrochloride; for inhibition at 50 µg/mL: Homo sapiens, SMMC-7721, 50 μg/ml, read-out: inhibition rate, Results (%) SMMC-7721
[6] = H22, first experiment, 10 mg/kg i.v., 6 doses
[7] = H22, first experiment, 20 mg/kg i.v., 6 doses
[8] = H22, first experiment, 40 mg/kg i.v., 6 doses
[9] = H22, second experiment, 10 mg/kg
[10] = H22, second experiment, 20 mg/kg
[11] = H22, second experiment, 40 mg/kg
[12] = H22, third experiment, 10 mg/kg
[13] = H22, third experiment, 20 mg/kg
[14] = H22, third experiment, 40 mg/kg

| Compound | Tumor weight [3, 6] | Inhibition rate (%) [3, 7] | Tumor weight [3, 7] | Inhibition rate (%) [3, 8] | Tumor weight [3, 8] | Tumor weight [3, 9] | Inhibition rate (%) [3, 10] | Tumor weight [3, 10] | Inhibition rate (%) [3, 11] | Tumor weight [3, 11] | Inhibition rate (%) [3, 12] | Tumor weight [3, 12] | Inhibition rate (%) [3, 13] | Tumor weight [3, 13] | Inhibition rate (%) [3, 14] | Tumor weight [3, 14] | Average weight (g)-after administration ([3]; 10 mg/kg) | Average weight(g)-after administration ([3]; 10 mg/kg) | Average weight (g)-after administration ([3]; 20 mg/kg) | Average weight(g)-after administration ([3]; 20 mg/kg) | other results |
| --- | --- | --- | --- | --- | --- | --- | --- | --- | --- | --- | --- | --- | --- | --- | --- | --- | --- | --- | --- | --- | --- |
| CC(C)C1CC23OC1(O)C/C(=C\Nc1ccc(O)cc1)C2CCC3C (stereo not shown) [Compound 6, Curcumol p-hydroxy aniline hydrochloride] | 2.8 ± 0.37 g | 47.0% | 1.60 ± 0.29 g | 61.9% | 1.15 ± 0.31 g | 2.6 ± 0.37 g | 47.7% | 1.58 ± 0.29 g | 60.3% | 1.21 ± 0.31 g | 7.3% | 2.8 ± 0.37 g | 46.0% | 1.63 ± 0.29 g | 56.9% | 1.30 ± 0.31 g | 21.2 g | 21.0 g | 20.0 g | 22.0 g | Inhibition rate ([1]; 0.08 μg/ml): 0.89; Inhibition rate ([1]; 0.40 μg/ml): 1.7; Inhibition rate ([1]; 2.0 μg/ml): 2.99; Inhibition rate ([1]; 10 μg/ml): 13.15; Inhibition rate ([1]; 50 μg/ml): 7.07; IC50 ([1]; five 5× serial dilutions from 50 μg/ml): > 146 µM; IC50 (ug/ml) against tumor cell lines, MCF ([2]; hydrochloride): 1.10 µg/mL; Inhibition rate (%) [3, 6]: 7.0%; Inhibition rate (%) [3, 9]: 13.9%; Average weight (g)-after administration ([3]; 40 mg/kg): 21.4 g; Average weight(g)-after administration ([3]; 40 mg/kg): 22.4 g; Average weight(g)-after administration ([3]; iv, 10 mg/kg): 22.0 g; Average weight(g)-after administration ([3]; iv, 20 mg/kg): 22.2 g; Average weight(g)-after administration ([3]; iv, 40 mg/kg): 22.1 g; inhibitory effect against mouse grafted liver cancer H22 (in words) [3]: good inhibitory effect; TC50 [4]: 192.45 µg/mL; inhibition rate, Results (%) SMMC-7721 ([5]; Table 1): 86.12%; inhibition rate, Results (%) SMMC-7721 ([5]; Table 2 (repeated screening)): 86.12%; inhibition at 50 µg/mL ([5]; Table 3 (repeated screening)): 87.1% |
| CC(C)C1CC23OC1(O)CC(=CN1CCNCC1)C2CCC3C (stereo not shown) [Compound 8, Curcumol piperazine hydrochloride] | 3.02 ± 0.33 g | 4.0% | 2.9 ± 0.39 g | 37.1% | 1.9 ± 0.36 g | 3.10 ± 0.33 g | 4.0% | 2.9 ± 0.39 g | 36.1% | 1.93 ± 0.36 g | 2.3% | 2.95 ± 0.33 g | 7.3% | 2.8 ± 0.39 g | 33.4% | 2.01 ± 0.36 g | 20.3 g | 22.3 g | 20.9 g | 21.9 g | inhibition at 0.08 µg/mL ([1]; 0.08 μg/ml, read-out: Inhibition rate): 9.74%; inhibition at 0.4 µg/mL ([1]; 0.40 μg/ml, read-out: Inhibition rate): 2.64%; inhibition at 2 µg/mL ([1]; 2.0 μg/ml, read-out: Inhibition rate): 5.27%; inhibition at 10 µg/mL ([1]; 10 μg/ml, read-out: Inhibition rate): 0.62%; IC50 ([1]; IC50, five 5× serial dilutions from 50 μg/ml): > 156 µM; inhibition at 50 µg/mL ([1]; read-out: Inhibition rate, 50 μg/ml): 1.4%; IC50 ([2]; Homo sapiens, MCF7, read-out: IC50 (ug/ml) against tumor cell lines, MCF): 3.28 µg/mL; Average weight (g)-after administration ([3]; 40 mg/kg): 21.9 g; Average weight(g)-after administration ([3]; 40 mg/kg): 21.4 g; Average weight(g)-after administration ([3]; iv, 10 mg/kg): 22.3 g; Average weight(g)-after administration ([3]; iv, 20 mg/kg): 21.9 g; Average weight(g)-after administration ([3]; iv, 40 mg/kg): 22.4 g; inhibitory effect against mouse grafted liver cancer H22 (in words) [3]: some inhibitory effect only when the concentration reached 40 mg/kg; TC50 [4]: 192.45 µg/mL; inhibition at 50 µg/mL ([5]; Table 1): 4.5%; inhibition at 50 µg/mL ([5]; Table 2 (repeated screening)): 2.3%; inhibition at 50 µg/mL ([5]; Table 3 (repeated screening)): 7.98% |
